Data: article PMC8510601, “Discovery of benzamide-hydroxypyridinone hybrids as potent multi-targeting agents for the treatment of Alzheimer's disease” (Journal of Enzyme Inhibition and Medicinal Chemistry, 2021)
Structures can show the parent of a compound that is named as a salt. Where two headings read alike, the source gives them in different places.

Key:
[1] = in vitro; settings: PAMPA
[2] = literature value, cited from earlier work
[3] = target: T1, MAO-B (Homo sapiens, UniProt P27338); test: Human MAO-B inhibition assay; format: biochemical; settings: for inhibition at 0.1 µM: read-out: Inhibitory rate ± SEM (%, 100 nM); for inhibition at 1 µM: read-out: Inhibitory rate ± SEM (%, 1 μM); for IC50: ± SEM, read-out: IC50 against MAO-B
T1 sequence (P27338 1-520): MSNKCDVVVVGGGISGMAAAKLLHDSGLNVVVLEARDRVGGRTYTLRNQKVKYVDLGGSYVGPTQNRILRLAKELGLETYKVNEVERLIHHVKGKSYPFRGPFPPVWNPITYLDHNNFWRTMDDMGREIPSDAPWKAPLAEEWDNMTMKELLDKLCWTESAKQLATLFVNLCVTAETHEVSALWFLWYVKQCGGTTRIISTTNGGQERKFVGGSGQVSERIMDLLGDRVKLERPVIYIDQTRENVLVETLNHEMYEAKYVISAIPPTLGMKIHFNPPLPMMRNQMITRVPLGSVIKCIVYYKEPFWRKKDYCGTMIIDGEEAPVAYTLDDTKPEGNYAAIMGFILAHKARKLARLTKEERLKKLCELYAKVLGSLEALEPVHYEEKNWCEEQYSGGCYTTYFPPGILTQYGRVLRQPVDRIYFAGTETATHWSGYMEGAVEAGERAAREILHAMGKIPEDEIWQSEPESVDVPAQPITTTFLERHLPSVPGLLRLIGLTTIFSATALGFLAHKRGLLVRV

[4] = pKa determination by spectrophotometric titration; settings: pH range 2.0–10.5, 25 °C
[5] = Iron-chelating activity test: affinity constants for Fe3+ and pFe3+
[6] = system: scopolamine-induced cognitive dysfunction ICR mice; test: Morris water maze test, scopolamine-induced cognitive dysfunction; settings: MWM last day, test agent 15 mg/kg i.p. + scopolamine 15 mg/kg i.p., 15 days, n = 8, mean ± SEM
Protocol: The MWM test was performed at the last 5 days including two days of memory and learning training, three days of cognitive assessment. On the fifth day, a probe training trial was performed and analysed. […] However, the dosage of scopolamine was increased from 5 mg/kg to 15 mg/kg to achieve a better modelling effect.
Cognitive and memory assays in vivo
The adult female ICR mice (8-10 weeks old, weight 20-25 g) were obtained from the
Zhejiang Academy of Medical Sciences (Hangzhou, China).
agents were prepared as clear injections, consisting of 10% DMSO, 20%
(2-hydroxypropyl)-β-cyclodextrin and PBS. The mice were trained to find the platform (10 cm
diameter) in the opaque circular pool (120 cm diameter, 60 cm height) filled with water (40 cm,
depth), which was described in detail in our previous study.[1] All mice received at least one
training session daily in four quadrants for four consecutive days before testing of finding the
The mice were randomly divided into four groups: (i) control group (PBS of 20%
were intraperitoneally injected with indicated compounds or solvent 30 min before intraperitoneal
injection with scopolamine or PBS once a day for 15 consecutive days. The Morris water maze
test was performed at the last 5 days.

[7] = PAMPA-BBB assay; settings: from Pe in PAMPA-BBB
[8] = DFP^d: KCl (0.1 M); cited from earlier work
[9] = DFP^d: KCl (0.1 M); cited from earlier work; remark: listed apart in the source
[10] = system: PC12 cells; test: Intracellular ROS detection (DCFH-DA), Aβ1–42-induced; format: cell-based; settings: 8g and Aβ1–42 10 μM, flow cytometry
Protocol: Aβ deposition and peroxidation are also important clinical features of AD. Therefore, we subsequently assessed the antioxidation of compound 8g, using 2′,7′-dichlorofluorescin diacetate (DCFH-DA) to detect intracellular ROS generation on the PC12 cell line derived from neural pheochromocytoma. Based on our previous research, the concentration of 10 μM of compound 8g was chosen in this test. […]
8. Intracellular ROS detection

[11] = 0.1 M KCl aqueous solution, KCl (0.1 M)
[12] = 0.1 M KCl aqueous solution, pKa2, KCl (0.1 M)
[13] = pH 7.4, [Fe3+]total = 10^−6 M, [ligand]total = 10^−5 M, calculated from pKa and log β measured in KCl/DMSO

Row | inhibition at 0.1 µM ([3]; 100 nM) | inhibition at 1 µM ([3]; 1 μM) | melting point | pKa [4, 11] | pKa [4, 12] | IC50 [3] | Compound | Log β2 ([5]; KCl (0.1 M): DMSO = 3:2 (v/v)) | Log β3 ([5]; KCl (0.1 M): DMSO = 3:2 (v/v)) | Log β1 ([5]; KCl (0.1 M): DMSO = 9:1 (v/v)) | pFe^3+ [5, 13] | further results
1 |  |  |  |  |  |  | Nc1c2c(nc3ccccc13)CCCC2 [Tacrine] |  |  |  |  | Papp at 6 h, 25 μg/mL [1]: 4.12 ± 0.45 ×10⁻⁶ cm/s; Pe ([2]; footnote b): 5.3 ± 0.19^b 10^–6 cm/s
2 | 38.7 ± 0.94% | 58.6 ± 1.18% | 208 to 210 °C | 3.41 | 9.88 |  | C#CCOc1ccc(C(=O)NCCn2ccc(=O)c(O)c2C)cc1 [Compound 8j] | 26.14 | 35.24 | 14.67 | 18.35 | 
3 | 33.1 ± 1.43% | 51.5 ± 1.06% | 180 to 182 °C | 3.38 | 9.99 |  | Cc1c(O)c(=O)ccn1CCNC(=O)c1ccccc1OCc1ccccc1 [Compound 8e] | 26.46 | 35.64 | 14.66 | 18.43 | 
4 | 39.5 ± 2.38% | 63.3 ± 0.92% | 274 to 276 °C | 3.21 | 9.89 | 189 ± 7.51 nM | Cc1c(O)c(=O)ccn1CCNC(=O)c1ccc(OCC2CCCCC2)cc1 [Compound 8k] | 26.31 | 35.84 | 14.44 | 18.91 | 
5 | 37.9 ± 1.22% | 54.57 ± 0.51% | 178 to 180 °C | 3.38 | 9.92 |  | Cc1c(O)c(=O)ccn1CCNC(=O)c1cccc(OCc2ccccc2)c1 [Compound 8f] | 26.85 | 35.33 | 14.75 | 18.38 | 
6 |  |  |  |  |  |  | C#CCN(C)Cc1ccccc1 [Pargyline, reference compound] |  |  |  |  | inhibition at 0.1 µM [3]: 50.3 ± 0.73%; inhibition at 1 µM [3]: 91.59 ± 0.09%; Distance to the target [6]: 2.89 ± 0.69 m; Entries to the target [6]: 3.85 ± 0.48
7 | > 50% | 70.9 ± 2.51% | 254 to 256 °C | 3.62 | 9.76 | 82.8 ± 0.8 nM | Cc1c(O)c(=O)ccn1CCNC(=O)c1ccc(OCc2ccc(F)cc2)cc1 [Compound 8m] | 26.77 | 35.31 | 15.03 | 18.81 | 
8 | 37.6 ± 1.01% | 55.3 ± 1.91% | 163 to 165 °C | 3.33 | 9.95 |  | Cc1c(O)c(=O)ccn1CCNC(=O)c1ccc(O)cc1 [Compound 8y] | 26.07 | 35.42 | 14.61 | 18.31 | 
9 | 48.1 ± 1.57% | 66.75 ± 0.34% | 246 to 248 °C | 3.27 | 9.8 | 119 ± 2.76 nM | CCOc1ccc(C(=O)NCCn2ccc(=O)c(O)c2C)cc1 [Compound 8h] | 26.06 | 35.33 | 14.67 | 18.67 | 
10 | 29.1 ± 2.14% | 69.7 ± 2.38% | 280 to 282 °C | 3.15 | 9.81 |  | Cc1c(O)c(=O)ccn1CCNC(=O)c1ccncc1 [Compound 11c] | 26.21 | 35.58 | 14.74 | 18.89 | 
11 |  |  |  |  |  |  | CN1[C@@H]2C[C@@H](OC(=O)[C@H](CO)c3ccccc3)C[C@H]1[C@@H]1O[C@@H]12 [scopolamine, Scopolamine hydrobromide] |  |  |  |  | Distance to the target [6]: 7.74 ± 1.23 m; Entries to the target [6]: 2.00 ± 0.50; Latency to the target [6]: 41.40 ± 5.87 s
12 | 46.5 ± 6.99% | 63.4 ± 4.06% | 268 to 270 °C | 3.25 | 9.78 | 187.7 ± 0.42 nM | Cc1c(O)c(=O)ccn1CCNC(=O)c1ccc(OCc2ccc(C(F)(F)F)cc2)cc1 [Compound 8r] | 26.01 | 34.98 | 14.48 | 18.39 | 
13 | 34 ± 5.19% | 61.48 ± 0.58% | 219 to 221 °C | 3.35 | 9.86 |  | Cc1c(O)c(=O)ccn1CCNC(=O)c1ccccn1 [Compound 11a] | 25.92 | 35.10 | 14.52 | 18.27 | 
14 | 48.9 ± 1.93% | 64.2 ± 1.94% | 245 to 247 °C | 3.29 | 9.56 | 124 ± 1.32 nM | Cc1c(O)c(=O)ccn1CCNC(=O)c1ccc(OCc2ccc(C(C)(C)C)cc2)cc1 [Compound 8v] | 25.51 | 35.20 | 14.69 | 19.25 | 
15 |  |  |  |  |  |  | CN1C(C(=O)Nc2ccccn2)=C(O)c2ccccc2S1(=O)=O [Piroxicam] |  |  |  |  | Papp [1]: 2.05 ± 0.04 ×10⁻⁶ cm/s; Pe ([2]; footnote c): 2.5^c 10^–6 cm/s; Prediction of CNS penetrability [7]: CNS ± (CNS ±: 2.0 < Pe (10^–6 cm/s) < 4.0, uncertain BBB permeability)
16 | 45.1 ± 1.62% | 64.1 ± 0.82% | 245 to 247 °C | 3.12 | 9.93 | 118 ± 4.24 nM | Cc1ccc(COc2ccc(C(=O)NCCn3ccc(=O)c(O)c3C)cc2)cc1 [Compound 8t] | 26.42 | 35.19 | 14.45 | 18.18 | 
17 | 36.02 ± 0.15% | 63 ± 3.9% | 241 to 243 °C | 3.34 | 9.82 | 210.8 ± 1.21 nM | COc1ccc(C(=O)NCCn2ccc(=O)c(O)c2C)cc1 [Compound 8d] | 25.95 | 35.25 | 14.52 | 18.53 | 
18 |  |  |  |  |  |  | Cc1c(O)c(=O)ccn1C [DFP, Deferiprone, reference compound] | 26.04 | 34.84 | 14.75 | 18.24 | Log β1 [8]: 15.03; Log β2 [8]: 27.42; Log β3 [8]: 37.35; pFe^3+ [8]: 20.74; pKa1 [9]: 3.61; pKa2 [9]: 9.78; pKa ([4]; KCl (0.1 M)): 3.64; pKa2 ([4]; KCl (0.1 M)): 9.79; pFe^3+ ([5]; DFP^a: from constants measured in KCl (0.1 M)): 20.12; Log β1 ([5]; DFP^a: measured in KCl (0.1 M)): 14.86; Log β2 ([5]; DFP^a: measured in KCl (0.1 M)): 27.13; Log β3 ([5]; DFP^a: measured in KCl (0.1 M)): 36.76
19 |  |  |  |  |  |  | Aβ1–42: Aβ peptide used to induce intracellular ROS in PC12 cells (model group) [reference compound] |  |  |  |  | ROS %Gated (percentage of positive cells in the total number of cells) [10]: 44.58%; ROS Mean (average fluorescence intensity of all cells) [10]: 131.56
20 | 44.38 ± 0.23% | 56.43 ± 0.24% | 156 to 158 °C | 3.47 | 9.68 | 121.5 ± 0.86 nM | Cc1c(O)c(=O)ccn1CCNC(=O)c1ccccc1O [Compound 8w] | 25.69 | 34.63 | 14.45 | 18.34 | 
21 | 47.7 ± 6.06% | 72.4 ± 3.26% | 236 to 238 °C | 3.32 | 9.55 | 110.9 ± 1.1 nM | Cc1c(O)c(=O)ccn1CCNC(=O)c1ccc(OCc2cccc(Cl)c2)cc1 [Compound 8n] | 25.95 | 34.39 | 14.64 | 18.51 | 
22 | 43.63 ± 0.34% | 55.75 ± 0.03% | 144 to 146 °C | 3.28 | 9.75 | 121 ± 1.94 nM | Cc1c(O)c(=O)ccn1CCNC(=O)c1cccc(O)c1 [Compound 8x] | 25.93 | 34.96 | 14.67 | 18.46 | 
